Data reported in patent publication US20260207623A1, “USE OF ESTETROL IN HEPATICALLY IMPAIRED PATIENTS” (ESTETRA SRL, priority 2022, published 2026).

Columns and labels:
post-menopausal women = assay: Example 3 (15 mg, 20 mg E4 monohydrate or placebo): weekly frequency of moderate to severe VMS and responder proportions; type: in vivo, human
Experimental: A further clinical study was designed to evaluate the effect of 15 or 20 mg estetrol (E4) monohydrate, or placebo on the severity and frequency of vasomotor symptoms (VMS) and the safety of E4 20 mg. The inclusion and exclusion criteria as described for Example 2 were maintained for the present Example (i.e. Example 3).
• 1. Mean change in weekly frequency of moderate to severe vasomotor symptoms (VMS) from Baseline to Week 4 (Efficacy Study Part) [Time Frame: Baseline and Week 4]: • The weekly frequency of moderate to severe VMS at Baseline and Week 4 is defined as the total number (sum) of all recorded moderate to severe VMS experienced during the last 7 consecutive days prior randomization for Baseline and at Week 4. Mean change=mean weekly frequency at Week 4-mean weekly frequency at Baseline. • 2. Mean change in weekly frequency of moderate to severe vasomotor symptoms (VMS) from Baseline to Week 12 (Efficacy Study Part) [Time Frame: Baseline and Week 12] • The weekly frequency of moderate to severe VMS at Baseline and Week 12 is defined as the total number (sum) of all recorded moderate to severe VMS experienced during the last 7 consecutive days prior randomization for Baseline and at Week 12. Mean change=mean weekly frequency at Week 12-mean weekly frequency at Baseline. • 3. […]

[1] = mass balance study in humans; cited from earlier work
[2] = test system: triglycerides, glucose, cholesterol, HDL-cholesterol, LDL-cholesterol level; assay: Example 2 section F: lipid parameters and glucose level (triglycerides, glucose, cholesterol, HDL-cholesterol, LDL-cholesterol) at 15 mg and 20 mg daily doses; type: in vivo, human
Experimental: In order to better assess the potential for increasing the daily dose beyond the minimum effective dose of 15 mg estetrol monohydrate daily, a number of parameters were followed in a study where estetrol monohydrate was administered at the increased dose of 20 mg per day.
1. Triglycerides Level (mmol/L)
2. Glucose Level (mmol/L)
3. Cholesterol Level (mmol/L)
4. HDL-Cholesterol Level (mmol/L)
5. LDL-Cholesterol Level (mmol/L)

## C[C@]12CC[C@@H]3c4ccc(O)cc4CC[C@H]3[C@@H]1[C@@H](O)[C@@H](O)[C@@H]2O [E4, 1,3,5 (10)-estratrien-3,15alpha, 16alpha, 17beta-tetrol]
post-menopausal women; 15 mg and 20 mg vs placebo, weeks 4 and 12 (FIG. 10)
  frequency of moderate to severe VMS: significantly decreased
post-menopausal women; FIG. 11
  number of women with reduced VMS frequency (at least 50% or 75% reduction) vs placebo: higher number of women that experienced a reduced VMS frequency than placebo
[1]
  contribution of hepatic elimination to the overall elimination: approximately 20%

## C[C@]12CC[C@@H]3c4ccc(O)cc4CC[C@H]3[C@@H]1[C@@H](O)[C@@H](O)[C@@H]2O [E4 monohydrate, estetrol monohydrate]
[2]; 15 mg daily
  Cholesterol level, Baseline, Mean: 5.51 mmol/L
  Cholesterol level, Baseline, Median: 5.62 mmol/L
  Glucose level, Baseline, Mean: 4.77 mmol/L
  Glucose level, Baseline, Median: 4.72 mmol/L
  HDL-Cholesterol level, Baseline, Mean: 1.73 mmol/L
  HDL-Cholesterol level, Baseline, Median: 1.66 mmol/L
  LDL-Cholesterol level, Baseline, Mean: 3.05 mmol/L
  LDL-Cholesterol level, Baseline, Median: 3.22 mmol/L
  Triglycerides level, Baseline, Mean: 1.32 mmol/L
  Triglycerides level, Baseline, Median: 1.21 mmol/L
[2]; 15 mg daily, after 12 weeks
  Cholesterol level, End Of Treatment Actual Change from Baseline, Mean: 0.12 mmol/L
  Cholesterol level, End Of Treatment Actual Change from Baseline, Median: 0.08 mmol/L
  Cholesterol level, End Of Treatment Actual Value, Mean: 5.63 mmol/L
  Cholesterol level, End Of Treatment Actual Value, Median: 5.71 mmol/L
  Glucose level, End Of Treatment Actual Change from Baseline, Mean: 0.02 mmol/L
  Glucose level, End Of Treatment Actual Change from Baseline, Median: 0.05 mmol/L
  Glucose level, End Of Treatment Actual Value, Mean: 4.79 mmol/L
  Glucose level, End Of Treatment Actual Value, Median: 4.77 mmol/L
  HDL-Cholesterol level, End Of Treatment Actual Change from Baseline, Mean: 0.16 mmol/L
  HDL-Cholesterol level, End Of Treatment Actual Change from Baseline, Median: 0.17 mmol/L
  HDL-Cholesterol level, End Of Treatment Actual Value, Mean: 1.89 mmol/L
  HDL-Cholesterol level, End Of Treatment Actual Value, Median: 1.81 mmol/L
  LDL-Cholesterol level, End Of Treatment Actual Change from Baseline, Mean: 0.09 mmol/L
  LDL-Cholesterol level, End Of Treatment Actual Change from Baseline, Median: 0.10 mmol/L
  LDL-Cholesterol level, End Of Treatment Actual Value, Mean: 3.14 mmol/L
  LDL-Cholesterol level, End Of Treatment Actual Value, Median: 3.25 mmol/L
  Triglycerides level, End Of Treatment Actual Change from Baseline, Mean: 0.20 mmol/L
  Triglycerides level, End Of Treatment Actual Change from Baseline, Median: 0.15 mmol/L
  Triglycerides level, End Of Treatment Actual Value, Mean: 1.61 mmol/L
  Triglycerides level, End Of Treatment Actual Value, Median: 1.40 mmol/L
[2]; 20 mg daily
  Cholesterol level, Baseline, Mean: 6.27 mmol/L
  Cholesterol level, Baseline, Median: 6.25 mmol/L
  Glucose level, Baseline, Mean: 5.53 mmol/L
  Glucose level, Baseline, Median: 5.60 mmol/L
  HDL-Cholesterol level, Baseline, Mean: 1.68 mmol/L
  HDL-Cholesterol level, Baseline, Median: 1.60 mmol/L
  LDL-Cholesterol level, Baseline, Mean: 3.94 mmol/L
  LDL-Cholesterol level, Baseline, Median: 4.00 mmol/L
  Triglycerides level, Baseline, Mean: 1.43 mmol/L
  Triglycerides level, Baseline, Median: 1.40 mmol/L
[2]; 20 mg daily dose in place of 15 mg daily dose
  lipid parameters and glucose level: do not behave significantly differently
[2]; 20 mg daily, after 28 days
  Cholesterol level, End Of Treatment Actual Change from Baseline, Mean: -0.18 mmol/L
  Cholesterol level, End Of Treatment Actual Change from Baseline, Median: -0.20 mmol/L
  Cholesterol level, End Of Treatment Actual Value, Mean: 6.09 mmol/L
  Cholesterol level, End Of Treatment Actual Value, Median: 6.10 mmol/L
  Glucose level, End Of Treatment Actual Change from Baseline, Mean: -0.10 mmol/L
  Glucose level, End Of Treatment Actual Change from Baseline, Median: -0.15 mmol/L
  Glucose level, End Of Treatment Actual Value, Mean: 5.44 mmol/L
  Glucose level, End Of Treatment Actual Value, Median: 5.60 mmol/L
  HDL-Cholesterol level, End Of Treatment Actual Change from Baseline, Mean: 0.29 mmol/L
  HDL-Cholesterol level, End Of Treatment Actual Change from Baseline, Median: 0.35 mmol/L
  HDL-Cholesterol level, End Of Treatment Actual Value, Mean: 1.97 mmol/L
  HDL-Cholesterol level, End Of Treatment Actual Value, Median: 1.90 mmol/L
  LDL-Cholesterol level, End Of Treatment Actual Change from Baseline, Mean: -0.51 mmol/L
  LDL-Cholesterol level, End Of Treatment Actual Change from Baseline, Median: -0.65 mmol/L
  LDL-Cholesterol level, End Of Treatment Actual Value, Mean: 3.43 mmol/L
  LDL-Cholesterol level, End Of Treatment Actual Value, Median: 3.45 mmol/L
  Triglycerides level, End Of Treatment Actual Change from Baseline, Mean: 0.10 mmol/L
  Triglycerides level, End Of Treatment Actual Change from Baseline, Median: 0.10 mmol/L
  Triglycerides level, End Of Treatment Actual Value, Mean: 1.53 mmol/L
  Triglycerides level, End Of Treatment Actual Value, Median: 1.40 mmol/L
